# Test results: patent publication US7563787B2, “Substituted pyrazole compounds” (Miikana Therapeutics, Inc., priority 2005, dated 2009)
# Experiments:
# [1] = target: T1, recombinant Aurora A (Homo sapiens, UniProt O14965); assay: Aurora A (Aurora 2) Inhibition Assay (Z'-Lyte); type: biochemical; conditions: 100 μM compound; ATP 10 μM; 1 h
# T1 construct: purchased Upstate, Lake Placid, N.Y
# T1 sequence (O14965 1-403): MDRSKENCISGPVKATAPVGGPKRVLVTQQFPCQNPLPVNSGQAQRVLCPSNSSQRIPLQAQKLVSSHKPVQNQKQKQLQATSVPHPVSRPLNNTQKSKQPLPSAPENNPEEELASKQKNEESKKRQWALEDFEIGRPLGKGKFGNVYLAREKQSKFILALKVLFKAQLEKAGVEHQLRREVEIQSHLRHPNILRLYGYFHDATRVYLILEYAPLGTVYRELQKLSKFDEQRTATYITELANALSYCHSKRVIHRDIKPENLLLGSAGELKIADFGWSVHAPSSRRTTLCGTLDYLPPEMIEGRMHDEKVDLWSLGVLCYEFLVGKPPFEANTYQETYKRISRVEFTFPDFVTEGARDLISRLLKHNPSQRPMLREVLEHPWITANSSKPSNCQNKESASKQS
# Protocol: Compounds were tested for their potency against recombinant Aurora A (Upstate, Lake Placid, N.Y.) using the PanVera Z'-Lyte kinase assay kit-Ser/[…] peptide (Invitrogen, Carlsbad, Calif.). […] Assays were carried out in half-area 96-well white polystyrene assay plates (Corning, Corning, N.Y.) in a final volume of 20 μl. The reaction was allowed to proceed for 1 h at room temperature in the dark, at which point the development reagent and stop reagent were added according to the manufacturer's instructions. Coumarin (Ex. 400 nm, Em. 465 nm) and fluorescein (Ex. 400 nm, Em. 565 nm) fluorescence values were measured on a SpectraFluor Plus plate reader (Tecan, Durham, N.C.). The emission ratio (coumarin/fluorescein) was determined and used to calculate the percent phosphorylation for each well. […] Typically 20-40% of the substrate was phosphorylated in wells without inhibitor. Dose-response curves of relative Aurora A activity vs. inhibitor concentration were plotted with Grafit (Erithacus Software, Horley, Surrey, UK).
# [2] = system: HCT-116 cell growth; assay: Whole Cell Cytotoxicity Assay: Sulforhodamine B; type: cell-based, Human; conditions: Homo sapiens, HCT-116; 100 μM compound; 96 hours; SRB staining
# Protocol: Human tumor-derived cell lines, HCT116 or MCF7 (ATCC) were plated in a 96 well plate in DMEM containing 10% fetal bovine serum and 2 mM L-glutamine at a density of 500 HCT116 cells or 1,000 MCF7 cells per well and incubated at 37° C., 5% CO2, for 24 hours prior to the addition of experimental compounds. Compounds were added using the dilution series indicated to duplicate plates and the cells were incubated in media plus compound for 96 hours. An additional plate was fixed in 10% TCA at the time of the addition of compound to provide a measurement of the cell population at time zero, the time of drug addition. Following the 96 hour incubation, cells were fixed in situ by gently aspirating off the culture media and then adding 50 ul of ice cold 10% TCA per well and incubation at 4° C. for 60 minutes. The plates were washed with tap water five times and allowed to air dry for 5 minute. 50 ul of a 0.4% (w/v) Sulforhodamine B solution in 1% (v/v) acetic acid was added per well and the cells were incubated for 30 minutes at room temperature. Following staining, plates were washed four times with 1% acetic acid to remove any unbound dye and then allowed to air dry for 5 minutes. The stain was solubilized with 100 ul of 10 mM Tris pH 10.5 per well and placed on an orbital rotator for 5 minutes. The absorbance was read at 570 nm. Percentage growth was calculated using the absorbance readings from the time zero plate (Tz) and the dilution series plate […] which included a column of cells grown in media without compound as a control (C) using the formulas: [(Ti−Tz)/(C−Tz)]×100 for concentrations for which Ti>/=Tz [(Ti−Tz)/Tz]×100 for concentrations for which Ti<Tz.
# Three dose response parameters were calculated for each experimental agent. Growth inhibition of 50% (GI50) was calculated from [(Ti−Tz)/(C−Tz)]×100=50, which was the drug concentration resulting in a 50% reduction in the net protein increase (as measured by SRB staining) in control cells during the drug incubation. The drug concentration resulting in total growth inhibition (TGI) was calculated from Ti=Tz. The LC50 (concentration of drug resulting in a 50% reduction in the measured protein at the end of the drug treatment as compared to that at the beginning) indicating a net loss of cells following treatment was calculated from [(Ti−Tz)/Tz]×100=−50. Values are calculated for each of these three parameters if the level of activity was reached; however, if the effect was not reached or was exceeded, the value for that parameter is expressed as greater or less than the maximum or minimum concentration tested.
SMILES,inhibition at 100 µM [1],inhibition at 100 µM [2]
"Cc1cc(Nc2cc(Cl)nc(/C=C/c3ccccc3)n2)n[nH]1 [Example 34, 6-chloro-N-(3-methyl-1H-pyrazol-5-yl)-2-[(E)-2-phenylvinyl]pyrimidin-4-amine]",99%,98%
"Cc1cc(Nc2nc(/C=C/c3ccccc3)nc(C(=O)NCCN3CCOCC3)c2N)[nH]n1 [Example 25, N-(2-morphholin-4-ylethyl)-5-amino-6-[(3-methyl-1H-pyrazol-5-yl)amino]-2-[(E)-2-phenylvinyl]pyrimidine-4-carboxamide]",100%,95%
Cc1cc(Nc2nc(/C=C/c3ccccc3)nc(Nc3cc(C)n[nH]3)c2N)[nH]n1 [Example 11],98%,99%
"Cc1cc(Nc2nc(/C=C/c3ccccc3)nc(N3CCCCC3)c2N)[nH]n1 [Example 14, N-(3-methyl-1H-pyrazol-5-yl)-6-(piperidin-1-yl)-2-[(E)-2-phenylvinyl]pyrimidin-4,5-diamine]",98%,–
Cc1ccc(/C=C/c2nc(Nc3cc(C)[nH]n3)c(N)c(N3CCN(C)CC3)n2)cc1 [Example 170],100%,99%
"Cc1cc(Nc2nc(/C=C/c3ccccc3)nc(N3CCNCC3)c2N)[nH]n1 [Example 13, N-(3-methyl-1H-pyrazol-5-yl)-6-(piperazin-1-yl)-2-[(E)-2-phenylvinyl]pyrimidin-4,5-diamine]",93%,–
"COc1ccc(/C=C/c2nc(Nc3cc(C)[nH]n3)cc(N3CCN(C)CC3)n2)cc1 [Example 160, 2-(4-methoxystyryl)-N-(5-methyl-1H-pyrazol-3-yl)-6-(4-methylpiperazin-1-yl)pyrimidin-4-amine]",100%,97%
Cc1ccc(/C=C/c2nc(Nc3cc(C)[nH]n3)c([N+](=O)[O-])c(N3CCN(C)CC3)n2)cc1 [Example 169],95%,–
"Cc1cc(Nc2nc(/C=C/c3ccccc3)nc(N3CCCC3)c2N)[nH]n1 [Example 15, N-(3-methyl-1H-pyrazol-5-yl)-6-(pyrrolidin-1-yl)-2-[(E)-2-phenylvinyl]pyrimidin-4,5-diamine]",100%,91%
"Cc1cc(Nc2cc(NCCN(C)C)nc(/C=C/c3ccccc3)n2)n[nH]1 [Example 66, N^4-(2-(dimethylamino)ethyl)-N^6-(5-methyl-1H-pyrazol-3-yl)-2-styrylpyrimidine-4,6-diamine]",100%,98%
"Cc1cc(Nc2cc(N3CCSCC3)nc(/C=C/c3ccccc3)n2)n[nH]1 [Example 83, N-(5methyl-1H-pyrazol-3-yl)-2-styryl-6thiomorpholinopyrimidin-4-amine]",100%,98%
"Cc1cc(Nc2cc(NCCN3CCN(C)CC3)nc(/C=C/c3ccccc3)n2)n[nH]1 [Example 77, N^4-(5-methyl-1H-pyrazol-3-yl)-N^6-(2-(4-methylpiperazin-1-yl)ethyl)-2-styrylpyrimidine-4,6-diamine]",100%,99%
"Cc1cc(Nc2nc(/C=C/c3ccccc3)nc(N3CCN(C)CC3)c2[N+](=O)[O-])[nH]n1 [Example 4, 6-(4-methylpiperazin-1-yl)-N-(3-methyl-1H-pyrazol-5-yl)-5-nitro-2-[(E)-2-phenylvinyl]pyrimidin-4-amine]",91%,87%
"Cc1cc(Nc2cc(N3CCN(C)CC3)nc(/C=C/c3ccc(Cl)cc3)n2)n[nH]1 [Example 49, 2-(4-chlorostyryl)-N-(5methyl-1H-pyrazol-3-yl)-6-(4-methylpiperazin-1-yl)pyrimidin-4-amine]",100%,75%
"COC(=O)c1ccc(/C=C/c2nc(Cl)c([N+](=O)[O-])c(Nc3cc(C)[nH]n3)n2)cc1 [Example 37, methyl 4-((E)-2-{4-chloro-6-[(3-methyl-1H-pyrazol-5-yl)amino]-5-nitropyrimidin-2-yl}vinyl)benzoate]",80%,–
"Cc1cc(Nc2cc(Nc3ccc(F)cc3)nc(/C=C/c3ccccc3)n2)n[nH]1 [Example 86, N^4-(4-fluorophenyl)-N^6-(5methyl-1H-pyrazol-3-yl)-2-styrylpyrimidine-4,6-diamine]",100%,98%
Cc1cc(Nc2cc(OCCN(C)C)nc(/C=C/c3ccccc3)n2)n[nH]1 [Example 69],100%,99%
"Cc1cc(Nc2cc(NC3CCOCC3)nc(/C=C/c3ccccc3)n2)n[nH]1 [Example 99, N^4-(tetrahydro-2H-pyran-4-yl)-N^6-(5-methyl-1H-pyrazol-3-yl)-2-styrylpyrimidine-4,6-diamine]",100%,98%
"COc1cc(/C=C/c2nc(Nc3cc(C)[nH]n3)cc(N3CCN(C)CC3)n2)cc(OC)c1 [Example 50, 2-(3,5-dimethoxystyryl)-N-(5-methyl-1H-pyrazol-3-yl)-6-(4-methylpiperazin-1-yl)pyrimidin-4-amine]",100%,98%
"Cc1cc(Nc2cc(N3CCN(C)CC3)nc(/C=C/c3ccc(Br)cc3)n2)n[nH]1 [Example 103, 2-(4-bromostyryl)-N-(5-methyl-1H-pyrazol-3-yl)-6-(4-methylpiperazin-1-yl)pyrimidin-4-amine]",100%,84%
"CCOC(=O)c1nc(/C=C/c2ccccc2)nc(Nc2cc(C)n[nH]2)c1[N+](=O)[O-] [Example 17, ethyl 6-[(3-methyl-1H-pyrazol-5-yl)amino]-5-nitro-2-[(E)-2-phenylvinyl]pyrimidine-4-carboxylate]",62%,93%
"Cc1cc(Nc2cc(N3CCCCC3)nc(/C=C/c3ccccc3)n2)n[nH]1 [Example 67, N-(5-methyl-1H-pyrazol-3-yl)-6-(piperidin-1-yl)-2-styrylpyrimidin-4-amine]",100%,98%
"Cc1cc(Nc2nc(/C=C/c3ccccc3)nc(N3CCOCC3)c2N)[nH]n1 [Example 12, N-(3-methyl-1H-pyrazol-5-yl)-6-(morpholin-4-yl)-2-[(E)-2-phenylvinyl]pyrimidin-4,5-diamine]",100%,99%
"Cc1cc(Nc2cc(N3CCN(S(C)(=O)=O)CC3)nc(/C=C/c3ccccc3)n2)n[nH]1 [Example 71, N-(5-methyl-1H-pyrazol-3-yl)-6-(4-methylsulfonylpiperazin-1-yl)-2-styrylpyrimidin-4-amine]",100%,98%
"COC(=O)c1ccc(/C=C/c2nc(Nc3cc(C)[nH]n3)c([N+](=O)[O-])c(N3CCN(C)CC3)n2)cc1 [Example 38, methyl 4-((E)-2-{4-(4-methylpiperazin-1-yl)-6-[(3-methyl-1H-pyrazol-5-yl)amino]-5-nitropyrimidin-2-yl}vinyl)benzoate]",99%,–
Cc1cc(Nc2nc(/C=C/c3ccc(Cl)cc3)nc(N3CCN(C)CC3)c2[N+](=O)[O-])n[nH]1 [Example 171],89%,–
